{
  "source": "patent US10905682B2",
  "about": "“Use of mitochondrial iron chelators for treatment of chronic obstructive pulmonary disease” (Cornell University, priority 2015, dated 2021)",
  "format_in_all_cases": "in vivo, mouse",
  "key": {"mice exposed to CS [1]": {"tested_on": "mice exposed to CS", "assay": "BAL leukocyte counts, BALF protein and IL-33/IL-6 ELISA in CS-induced pulmonary inflammation and injury", "details": "WT mice, 4 weeks CS then DFP during additional 2 or 4 weeks of CS, versus CS without DFP", "description": "(§1) In vivo CS exposures, chemical treatments and diet modifications. Age- and sex-matched mice, starting at 6-12 weeks of age, were selected at random and exposed to total body CS in a stainless steel chamber using a whole-body smoke exposure device (Model TE-10 Teague Enterprises) for 2 hours per day, 5 days per week for 4 weeks or 4-6 months. Age-matched male and female mice were used for all CS exposures. Mice were exposed to CS (mainstream and side stream smoke) from 100 3R4F cigarettes (University of Kentucky), which correlated to an average total particulate matter (TPM) of 150 mg/m^3. For animals subjected to cigarette smoke exposure, early death was used as an exclusion criterion. At the end of the exposure regimen, mice were euthanized by CO2 narcosis, the tracheas cannulated and the lungs inflated with PBS at 25 cm of H2O pressure. The left lung was tied off with a suture, dissected and flash frozen and the right lung fixed in 4% formalin at 4° C. overnight. A proximal portion of the left lung (4 month exposures only) was fixed for transmission electron microscopy (TEM) analysis.\nMice exposed to CS for 4 weeks had modifications to their dietary iron as follows: Diet 1 (Control Diet) from Harlan Laboratories (TD.94045 AIN-93G), which contained 300-ppm iron. Diet 2 (iron deficient diet) from Harlan Laboratories (TD.10210), which contained 2-6 ppm iron. Diet 3 (iron replete Diet) from Harlan Laboratories (TD.10213), which contained 2% carbonyl iron. Iron diets were exchanged for normal diets upon weaning at 3 weeks of age and used throughout the smoke exposures. Animals were weighed weekly and the quantity of chow consumed was recorded compared to mice on a normal iron diet. Deferiprone or FERRIPROX® solution (1mg/m1) (ApoPharma Inc.) was administered prophylactically in the animals' drinking water for the duration of smoke exposure. Deferiprone was also administered therapeutically in the animals' drinking water initiating therapy after 4 weeks of smoke exposure and continuing therapy for an additional 2-4 weeks. Animals were checked daily and the quantity of water consumed compared to control mice. Water solutions were changed twice weekly.\nBALF isolation, cell counts and ELISA. Mice were euthanized by CO2 narcosis, the tracheas cannulated and the lungs lavaged with 0.5 ml increments of ice-cold PBS eight times (4 ml total). BALF was centrifuged at 500×g for 5 minutes. […] The cell pellet was resuspended in 500 μl PBS and leukocytes were counted using a hemocytometer. […] The percentage of macrophages, lymphocytes and polymorphonuclear leukocytes (PMNs) were counted in a total of 300 cells, and absolute numbers of each leukocyte subset were calculated. […]"}, "mice exposed to CS [2]": {"tested_on": "mice exposed to CS", "assay": "CS-induced impairment of mucociliary clearance (MCC), CS-induced bronchitis model", "description": "as §1\nMice exposed to CS for 4 weeks had modifications to their dietary iron as follows: Diet 1 (Control Diet) from Harlan Laboratories (TD.94045 AIN-93G), which contained 300-ppm iron. Diet 2 (iron deficient diet) from Harlan Laboratories (TD.10210), which contained 2-6 ppm iron. […] Animals were weighed weekly and the quantity of chow consumed was recorded compared to mice on a normal iron diet. […] Animals were checked daily and the quantity of water consumed compared to control mice. […]\nAssessment of Mucociliary Clearance. Mucociliary clearance was quantified using a non-invasive, oropharyngeal aspiration procedure (Lam et al., The Journal of clinical investigation 123(12), 5212-5230 (2013)). […] Whole mouse 3D μ- single-photon emission computed tomography (SPECT) images from 10 minute acquisitions at 0, 1, and 3 hour time points were obtained, reconstructed, blindly analyzed and expressed as the percent removed by mucociliary clearance. […]"}, "mice exposed to CS [3]": {"tested_on": "mice exposed to CS", "assay": "Weight gain of CS-exposed mice treated with DFP", "details": "WT mice, CS 6 or 8 weeks, DFP after 4 weeks of CS, versus CS without DFP; FIG. 6d", "description": "as §1, with “A proximal portion of the left lung (4 month exposures only) was fixed for transmission electron microscopy (TEM) analysis.” left out\n(§2) Mice exposed to CS for 4 weeks had modifications to their dietary iron as follows: Diet 1 (Control Diet) from Harlan Laboratories (TD.94045 AIN-93G), which contained 300-ppm iron. […] Animals were weighed weekly and the quantity of chow consumed was recorded compared to mice on a normal iron diet. […] Animals were checked daily and the quantity of water consumed compared to control mice. […]"}, "[4]": {"tested_on": "lung mitochondrial non-heme iron", "assay": "Lung mitochondrial non-heme iron in CS-exposed mice", "details": "WT mice, CS 6 or 8 weeks, DFP after 4 weeks of CS, versus CS without DFP; FIG. 6e", "description": "In vivo CS exposures, chemical treatments and diet modifications. Age- and sex-matched mice, starting at 6-12 weeks of age, were selected at random and exposed to total body CS in a stainless steel chamber using a whole-body smoke exposure device (Model TE-10 Teague Enterprises) for 2 hours per day, 5 days per week for 4 weeks or 4-6 months. Age-matched male and female mice were used for all CS exposures. Mice were exposed to CS (mainstream and side stream smoke) from 100 3R4F cigarettes (University of Kentucky), which correlated to an average total particulate matter (TPM) of 150 mg/m^3. For animals subjected to cigarette smoke exposure, early death was used as an exclusion criterion. […]\nas §2\nMeasurement of mitochondrial membrane potential and Cytochrome C oxidase activity. Mitochondrial-enriched fractions were isolated from the lungs of mice and JC1 uptake measured using the MITOISO1 mitochondrial isolation kit (Sigma Aldrich). […]"}},
  "data": [
    {"molecule": "Cc1c(O)c(=O)ccn1C", "note": "[DFP, Deferiprone]", "values": [
      {"measurement": "BAL total leukocyte counts (pulmonary inflammation)", "setting": "mice exposed to CS [1]; FIG. 6f", "value": "significant reductions"},
      {"measurement": "total BALF protein (acute lung injury)", "setting": "mice exposed to CS [1]; FIG. 6g", "value": "significant reductions"},
      {"measurement": "BALF IL-6 protein concentration (pulmonary inflammation)", "setting": "mice exposed to CS [1]; FIG. 16e", "value": "significant reductions"},
      {"measurement": "BALF IL-33 protein concentration (pulmonary inflammation)", "setting": "mice exposed to CS [1]; FIG. 16d", "value": "significant reductions"},
      {"measurement": "CS-induced MCC impairment, DFP combined with IRP2 deficiency", "setting": "mice exposed to CS [2]; DFP-treated Irp2-/- mice versus DFP or Irp2-/- alone, CS 1 month, FIG. 6c", "value": "better protection from CS-induced MCC impairment than DFP or Irp2−/− alone"},
      {"measurement": "CS-induced MCC impairment", "setting": "mice exposed to CS [2]; prophylactic: DFP in drinking water for the duration of CS-exposure (1 month), WT mice, FIG. 6c", "value": "protected mice from CS-induced MCC impairment"},
      {"measurement": "experimental COPD (overall)", "setting": "mice exposed to CS [2]; summary statement, CS-exposed mice", "value": "alleviated experimental COPD"},
      {"measurement": "weight gain", "setting": "mice exposed to CS [3]", "value": "improved weight gain"},
      {"measurement": "lung mitochondrial iron loading", "setting": "[4]", "value": "lower lung mitochondrial iron loading"}
    ]}
  ]
}
